Measurements taken from patent US8323919B2, “Assay methods for identifying glycogen synthase kinase 3 modulators” (PerkinElmer BioSignal, Inc., priority 2009, dated 2012).

Biological target: T1, GSK3β (Homo sapiens, UniProt P49841)
T1 construct: purchased Carna Biosciences
Test: LANCE Ultra TR-FRET kinase assay: phosphorylation of non-primed ULight-labeled 4E-BP1-derived peptide by GSK3β in the presence of inhibitor
Assay type: biochemical
Conditions: GSK3β (Carna Biosciences) 2 nM, ATP 10 μM, ULight-4E-BP1 50 nM, 60 min, DMSO 1%, inhibitor at various concentrations
Procedure: Anti-phosphorylated-4E-BP1 antibody (Thr37/46) labeled with a FRET donor is added and upon irradiation, the proximity of the FRET donor and FRET acceptor produce a signal, shown on the y-axis. The 4E-BP1-derived peptide substrate of SEQ ID No. 7 was used, modified by addition of three amino acids at both the N- and C-termini to facilitate solubilizing the peptide and labeling of the peptide with a FRET acceptor label; and
Anti-phosphorylated-4E-BP1 antibody (Thr37/46) labeled with a FRET donor is added and upon irradiation, the proximity of the FRET donor and FRET acceptor produce a signal, shown on the y-axis The 4E-BP1-derived peptide substrate of SEQ ID No. 7 was used, modified by addition of three amino acids at both the N- and C-termini to facilitate solubilizing the peptide and labeling of the peptide with a FRET acceptor label.
LANCE® Ultra assays are based on time-resolved fluorescence resonance energy transfer (TR-FRET). They use a proprietary europium chelate donor dye, W-1024 (Eu), with ULight®, a small molecular weight acceptor dye with a red fluorescent emission. In kinase assays, the binding of a Eu-labeled anti-phospho-substrate antibody to the phosphorylated ULight-labeled substrate brings donor and acceptor dye molecules into proximity. […]

T1 sequence (P49841 whole entry): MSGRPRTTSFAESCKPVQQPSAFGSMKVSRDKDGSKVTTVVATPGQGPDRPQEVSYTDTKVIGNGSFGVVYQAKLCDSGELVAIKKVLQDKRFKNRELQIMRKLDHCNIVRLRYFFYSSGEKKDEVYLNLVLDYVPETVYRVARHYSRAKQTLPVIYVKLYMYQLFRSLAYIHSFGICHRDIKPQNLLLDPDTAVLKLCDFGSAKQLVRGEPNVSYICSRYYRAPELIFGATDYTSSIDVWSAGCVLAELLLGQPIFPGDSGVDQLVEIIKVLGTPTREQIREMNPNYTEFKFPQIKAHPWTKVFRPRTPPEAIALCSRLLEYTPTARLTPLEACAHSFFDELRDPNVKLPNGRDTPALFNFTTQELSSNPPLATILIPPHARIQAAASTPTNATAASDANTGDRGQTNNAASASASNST

GSK3β activity on a 4E-BP1 GSK3 substrate | Compound
inhibited | Cn1cc(C2=C(c3ccc(Cl)cc3Cl)C(=O)NC2=O)c2ccccc21 [SB216763]
inhibited | O=C1Cc2c([nH]c3ccc(Br)cc23)-c2ccccc2N1 [kenpaullone]
